Measured values reported in patent US11608323B2 (SYNGENTA LIMITED, priority 2013, dated 2023).

Experiments:
Type in all cases: in vivo
[1] = test system: ABUTH; assay: Pre-emergence herbicidal activity, glasshouse pot test; details: rate 1000 g/Ha, evaluated after 13 days, scale 0-5
Outline: (§1)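 Visual 0–5 injury score (5 = total damage) taken 13 days after spraying. Treatment applied one day after sowing, before emergence; glasshouse at 24/16 °C day/night, 14 h photoperiod, 65% humidity.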

[2] = test system: ALOMY; assay: as above; details: rate 1000 g/Ha, evaluated after 13 days, scale 0-5
Outline: as §1

[3] = test system: AMARE; assay: as above; details: rate 1000 g/Ha, evaluated after 13 days, scale 0-5
Outline: as §1

[4] = test system: ECHCG; assay: as above; details: rate 1000 g/Ha, evaluated after 13 days, scale 0-5
Outline: as §1

[5] = test system: SETFA; assay: as above; details: rate 1000 g/Ha, evaluated after 13 days, scale 0-5
Outline: as §1

[6] = test system: ZEAMX; assay: as above; details: rate 1000 g/Ha, evaluated after 13 days, scale 0-5
Outline: as §1

[7] = test system: ABUTH; assay: Post-emergence herbicidal activity, glasshouse pot test; details: Abutilon theophrasti; application post-emergence; rate 1000 g/Ha; evaluated after 13 days
Outline: (§2)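 Damage rating 0 (none) to 5 (total), assessed 13 days after spraying. Plants received the compound in acetone/water 50:50 with 0.5% Tween 20 at 8 days post-sowing, then were kept at 24/16 °C, 14 h photoperiod, 65% RH.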

[8] = test system: ALOMY; assay: as above; details: Alopecurus myosuroides; application post-emergence; rate 1000 g/Ha; evaluated after 13 days
Outline: as §2

[9] = test system: AMARE; assay: as above; details: Amaranthus retroflexus; application post-emergence; rate 1000 g/Ha; evaluated after 13 days
Outline: as §2

[10] = test system: ECHCG; assay: as above; details: Echinochloa crus-galli; application post-emergence; rate 1000 g/Ha; evaluated after 13 days
Outline: as §2

[11] = test system: SETFA; assay: as above; details: Setaria faberi; application post-emergence; rate 1000 g/Ha; evaluated after 13 days
Outline: as §2

[12] = test system: ZEAMX; assay: as above; details: Zea mays; application post-emergence; rate 1000 g/Ha; evaluated after 13 days
Outline: as §2

CC1NC(=O)N(c2cc(C(F)(F)F)ccn2)C1O (stereo not drawn) [Compound A40]
ABUTH damage score, application pre-emergence [1]: 4
ALOMY damage score, application pre-emergence [2]: 2
AMARE damage score, application pre-emergence [3]: 5
ECHCG damage score, application pre-emergence [4]: 3
SETFA damage score, application pre-emergence [5]: 2
ZEAMX damage score, application pre-emergence [6]: 2
Post-emergence herbicidal activity ABUTH (damage score 0-5) [7]: 5
Post-emergence herbicidal activity ALOMY (damage score 0-5) [8]: 4
Post-emergence herbicidal activity AMARE (damage score 0-5) [9]: 5
Post-emergence herbicidal activity ECHCG (damage score 0-5) [10]: 4
Post-emergence herbicidal activity SETFA (damage score 0-5) [11]: 3
Post-emergence herbicidal activity ZEAMX (damage score 0-5) [12]: 1

C=CCOC1C(O)N(c2cc(C(F)(F)F)ccn2)C(=O)N1C (stereo not drawn) [Compound A41]
ABUTH damage score, application pre-emergence [1]: 5
ALOMY damage score, application pre-emergence [2]: 1
AMARE damage score, application pre-emergence [3]: 5
ECHCG damage score, application pre-emergence [4]: 2
SETFA damage score, application pre-emergence [5]: 2
ZEAMX damage score, application pre-emergence [6]: 1
Post-emergence herbicidal activity ABUTH (damage score 0-5) [7]: 5
Post-emergence herbicidal activity ALOMY (damage score 0-5) [8]: 4
Post-emergence herbicidal activity AMARE (damage score 0-5) [9]: 5
Post-emergence herbicidal activity ECHCG (damage score 0-5) [10]: 2
Post-emergence herbicidal activity SETFA (damage score 0-5) [11]: 4
Post-emergence herbicidal activity ZEAMX (damage score 0-5) [12]: 2

COC(OC)C1C(O)N(c2cc(C(F)(F)F)ccn2)C(=O)N1C (stereo not drawn) [Compound A42]
ABUTH damage score, application pre-emergence [1]: 1
ALOMY damage score, application pre-emergence [2]: 0
AMARE damage score, application pre-emergence [3]: 4
ECHCG damage score, application pre-emergence [4]: 0
SETFA damage score, application pre-emergence [5]: 3
ZEAMX damage score, application pre-emergence [6]: 0
Post-emergence herbicidal activity ABUTH (damage score 0-5) [7]: 4
Post-emergence herbicidal activity ALOMY (damage score 0-5) [8]: 2
Post-emergence herbicidal activity AMARE (damage score 0-5) [9]: 4
Post-emergence herbicidal activity ECHCG (damage score 0-5) [10]: 0
Post-emergence herbicidal activity SETFA (damage score 0-5) [11]: 2
Post-emergence herbicidal activity ZEAMX (damage score 0-5) [12]: 1

CN1C(=O)N(c2cc(C(F)(F)F)ccn2)C(O)C1CO (stereo not drawn) [Compound A43]
ABUTH damage score, application pre-emergence [1]: 5
ALOMY damage score, application pre-emergence [2]: 1
AMARE damage score, application pre-emergence [3]: 2
ECHCG damage score, application pre-emergence [4]: 1
SETFA damage score, application pre-emergence [5]: 2
ZEAMX damage score, application pre-emergence [6]: 0
Post-emergence herbicidal activity ABUTH (damage score 0-5) [7]: 5
Post-emergence herbicidal activity ALOMY (damage score 0-5) [8]: 1
Post-emergence herbicidal activity AMARE (damage score 0-5) [9]: 1
Post-emergence herbicidal activity ECHCG (damage score 0-5) [10]: 5
Post-emergence herbicidal activity SETFA (damage score 0-5) [11]: 0
Post-emergence herbicidal activity ZEAMX (damage score 0-5) [12]: 2

C#CCOC1C(O)N(c2cc(C(F)(F)F)ccn2)C(=O)N1C (stereo not drawn) [Compound A44]
ABUTH damage score, application pre-emergence [1]: 5
ALOMY damage score, application pre-emergence [2]: 4
AMARE damage score, application pre-emergence [3]: 5
ECHCG damage score, application pre-emergence [4]: 5
SETFA damage score, application pre-emergence [5]: 4
ZEAMX damage score, application pre-emergence [6]: 2
Post-emergence herbicidal activity ABUTH (damage score 0-5) [7]: 5
Post-emergence herbicidal activity ALOMY (damage score 0-5) [8]: 4
Post-emergence herbicidal activity AMARE (damage score 0-5) [9]: 5
Post-emergence herbicidal activity ECHCG (damage score 0-5) [10]: 5
Post-emergence herbicidal activity SETFA (damage score 0-5) [11]: 5
Post-emergence herbicidal activity ZEAMX (damage score 0-5) [12]: 4

COCCOC1C(O)N(c2cc(C(F)(F)F)ccn2)C(=O)N1C (stereo not drawn) [Compound A45]
ABUTH damage score, application pre-emergence [1]: 5
ALOMY damage score, application pre-emergence [2]: 2
AMARE damage score, application pre-emergence [3]: 5
ECHCG damage score, application pre-emergence [4]: 3
SETFA damage score, application pre-emergence [5]: 3
ZEAMX damage score, application pre-emergence [6]: 1
Post-emergence herbicidal activity ABUTH (damage score 0-5) [7]: 5
Post-emergence herbicidal activity ALOMY (damage score 0-5) [8]: 2
Post-emergence herbicidal activity AMARE (damage score 0-5) [9]: 5
Post-emergence herbicidal activity ECHCG (damage score 0-5) [10]: 3
Post-emergence herbicidal activity SETFA (damage score 0-5) [11]: 3
Post-emergence herbicidal activity ZEAMX (damage score 0-5) [12]: 1

O=C1N(c2cc(C(F)(F)F)ccn2)C(O)[C@@H]2CCCN12 (stereo partly drawn) [Compound A46]
ABUTH damage score, application pre-emergence [1]: 5
ALOMY damage score, application pre-emergence [2]: 4
AMARE damage score, application pre-emergence [3]: 5
ECHCG damage score, application pre-emergence [4]: 4
SETFA damage score, application pre-emergence [5]: 2
ZEAMX damage score, application pre-emergence [6]: 3
Post-emergence herbicidal activity ABUTH (damage score 0-5) [7]: 5
Post-emergence herbicidal activity ALOMY (damage score 0-5) [8]: 5
Post-emergence herbicidal activity AMARE (damage score 0-5) [9]: 5
Post-emergence herbicidal activity ECHCG (damage score 0-5) [10]: 5
Post-emergence herbicidal activity SETFA (damage score 0-5) [11]: 5
Post-emergence herbicidal activity ZEAMX (damage score 0-5) [12]: 3

O=C1N(c2cc(C(F)(F)F)ccn2)C(O)[C@H]2CCCN12 (stereo partly drawn) [Compound A47]
ABUTH damage score, application pre-emergence [1]: 5
ALOMY damage score, application pre-emergence [2]: 4
AMARE damage score, application pre-emergence [3]: 5
ECHCG damage score, application pre-emergence [4]: 5
SETFA damage score, application pre-emergence [5]: 4
ZEAMX damage score, application pre-emergence [6]: 2
Post-emergence herbicidal activity ABUTH (damage score 0-5) [7]: 5
Post-emergence herbicidal activity ALOMY (damage score 0-5) [8]: 5
Post-emergence herbicidal activity AMARE (damage score 0-5) [9]: 5
Post-emergence herbicidal activity ECHCG (damage score 0-5) [10]: 5
Post-emergence herbicidal activity SETFA (damage score 0-5) [11]: 5
Post-emergence herbicidal activity ZEAMX (damage score 0-5) [12]: 4

CC(C)OC1C(O)N(c2cc(C(F)(F)F)ccn2)C(=O)N1C (stereo not drawn) [Compound A48]
ABUTH damage score, application pre-emergence [1]: 5
ALOMY damage score, application pre-emergence [2]: 4
AMARE damage score, application pre-emergence [3]: 5
ECHCG damage score, application pre-emergence [4]: 1
SETFA damage score, application pre-emergence [5]: 3
ZEAMX damage score, application pre-emergence [6]: 1
Post-emergence herbicidal activity ABUTH (damage score 0-5) [7]: 5
Post-emergence herbicidal activity ALOMY (damage score 0-5) [8]: 4
Post-emergence herbicidal activity AMARE (damage score 0-5) [9]: 5
Post-emergence herbicidal activity ECHCG (damage score 0-5) [10]: 4
Post-emergence herbicidal activity SETFA (damage score 0-5) [11]: 4
Post-emergence herbicidal activity ZEAMX (damage score 0-5) [12]: 1

CC1C(O)N(c2cc(C(F)(F)F)c(Cl)cn2)C(=O)N1C (stereo not drawn) [Compound A49]
ABUTH damage score, application pre-emergence [1]: 5
ALOMY damage score, application pre-emergence [2]: 4
AMARE damage score, application pre-emergence [3]: 5
ECHCG damage score, application pre-emergence [4]: 4
SETFA damage score, application pre-emergence [5]: 4
ZEAMX damage score, application pre-emergence [6]: 3
Post-emergence herbicidal activity ABUTH (damage score 0-5) [7]: 5
Post-emergence herbicidal activity ALOMY (damage score 0-5) [8]: 5
Post-emergence herbicidal activity AMARE (damage score 0-5) [9]: 5
Post-emergence herbicidal activity ECHCG (damage score 0-5) [10]: 5
Post-emergence herbicidal activity SETFA (damage score 0-5) [11]: 5
Post-emergence herbicidal activity ZEAMX (damage score 0-5) [12]: 4

CON1C(=O)N(c2cc(C(F)(F)F)c(Cl)cn2)C(O)C1C (stereo not drawn) [Compound A50]
ABUTH damage score, application pre-emergence [1]: 5
ALOMY damage score, application pre-emergence [2]: 4
AMARE damage score, application pre-emergence [3]: 5
ECHCG damage score, application pre-emergence [4]: 5
SETFA damage score, application pre-emergence [5]: 4
ZEAMX damage score, application pre-emergence [6]: 2
Post-emergence herbicidal activity ABUTH (damage score 0-5) [7]: 5
Post-emergence herbicidal activity ALOMY (damage score 0-5) [8]: 5
Post-emergence herbicidal activity AMARE (damage score 0-5) [9]: 5
Post-emergence herbicidal activity ECHCG (damage score 0-5) [10]: 5
Post-emergence herbicidal activity SETFA (damage score 0-5) [11]: 5
Post-emergence herbicidal activity ZEAMX (damage score 0-5) [12]: 5

CCOC1C(O)N(c2cc(C(F)(F)F)c(C)cn2)C(=O)N1C (stereo not drawn) [Compound A52]
ABUTH damage score, application pre-emergence [1]: 5
ALOMY damage score, application pre-emergence [2]: 4
AMARE damage score, application pre-emergence [3]: 5
ECHCG damage score, application pre-emergence [4]: 5
SETFA damage score, application pre-emergence [5]: 4
ZEAMX damage score, application pre-emergence [6]: 2
Post-emergence herbicidal activity ABUTH (damage score 0-5) [7]: 5
Post-emergence herbicidal activity ALOMY (damage score 0-5) [8]: 5
Post-emergence herbicidal activity AMARE (damage score 0-5) [9]: 5
Post-emergence herbicidal activity ECHCG (damage score 0-5) [10]: 5
Post-emergence herbicidal activity SETFA (damage score 0-5) [11]: 5
Post-emergence herbicidal activity ZEAMX (damage score 0-5) [12]: 5

CCOC1C(O)N(c2cc(C(F)(F)F)c(Cl)cn2)C(=O)N1C (stereo not drawn) [Compound A53]
ABUTH damage score, application pre-emergence [1]: 5
ALOMY damage score, application pre-emergence [2]: 4
AMARE damage score, application pre-emergence [3]: 5
ECHCG damage score, application pre-emergence [4]: 4
SETFA damage score, application pre-emergence [5]: 4
ZEAMX damage score, application pre-emergence [6]: 2
Post-emergence herbicidal activity ABUTH (damage score 0-5) [7]: 5
Post-emergence herbicidal activity ALOMY (damage score 0-5) [8]: 5
Post-emergence herbicidal activity AMARE (damage score 0-5) [9]: 5
Post-emergence herbicidal activity ECHCG (damage score 0-5) [10]: 5
Post-emergence herbicidal activity SETFA (damage score 0-5) [11]: 5
Post-emergence herbicidal activity ZEAMX (damage score 0-5) [12]: 3

CCOC1C(O)N(c2cc(C(C)(F)F)ccn2)C(=O)N1C (stereo not drawn) [Compound A59]
ABUTH damage score, application pre-emergence [1]: 5
ALOMY damage score, application pre-emergence [2]: 4
AMARE damage score, application pre-emergence [3]: 5
ECHCG damage score, application pre-emergence [4]: 3
SETFA damage score, application pre-emergence [5]: 3
ZEAMX damage score, application pre-emergence [6]: 1
Post-emergence herbicidal activity ABUTH (damage score 0-5) [7]: 5
Post-emergence herbicidal activity ALOMY (damage score 0-5) [8]: 5
Post-emergence herbicidal activity AMARE (damage score 0-5) [9]: 5
Post-emergence herbicidal activity ECHCG (damage score 0-5) [10]: 5
Post-emergence herbicidal activity SETFA (damage score 0-5) [11]: 5
Post-emergence herbicidal activity ZEAMX (damage score 0-5) [12]: 4
